{
  "source": "paper PMC12220852",
  "about": "“An adamantane‐based ligand as a novel chemical tool for thermosensory TRPM8 channel therapeutic modulation” (The Febs Journal, 2025)",
  "key": {"[1]": {"test_system": "oxaliplatin‐induced peripheral cold allodynia in mice", "assay": "Dry ice test in oxaliplatin-induced cold allodynia", "assay_type": "in vivo, mouse", "settings": "5 mg·kg^−1 i.p., 30 and 90 min after administration, vs vehicle, oxaliplatin-treated mice", "description": "Given the inhibitory activity of compound 23 and the antinociceptive effects of TRPM8 antagonists described in models of oxaliplatin (OXP)‐induced neuropathy, we conducted a behavioral experiment in mice to assess the antinociceptive effects of compound 23 after repeated oxaliplatin administration. Oxaliplatin was intraperitoneally (i.p.) administered every other day for 5 days at 6 mg·kg^−1, reaching a total accumulative dose of 18 mg·kg^−1. […] The OXP‐induced sensitization to cold stimuli was also evident with the dry ice test, as evidenced by the significant reduction in the latency to cold stimulation through the application of a dry ice pellet against the paw on a glass surface (Fig. 8B, P < 0.05 Before OXP vs. After OXP). […]\nThe systemic effect of compound 23 was assessed after intraperitoneal administration at 5 mg·kg^−1, dissolved in a solution of 2% Cremophor and 5% DMSO in saline, with a volume of 10 mL·kg^−1. […] Nociceptive sensitivity was evaluated for 30‐ and 90‐min postinjection using the acetone drop test (7 days after the first oxaliplatin dose) and the dry ice test (9 days after the last oxaliplatin dose).\nThe dry ice test was conducted as previously described with some modifications. […] To determine the threshold value for each mouse, the latency to paw withdrawal was recorded for each hindpaw and subsequently averaged. […]"}, "[2]": {"test_system": "AITC‐induced excitability in murine nociceptors", "assay": "Multielectrode array (MEA): AITC-induced firing in nociceptors", "assay_type": "cell-based", "settings": "5 μM compound, 100 μM AITC, P2/P1", "description": "Additionally, we investigated the effect of compound 23 on capsaicin and AITC‐induced excitability in murine nociceptors. Employing an IC50 value of 1 μM for TRPV1 and 5 μM for TRPA1 of firing inhibition by compound 23 (Fig. 4), we interrogated its ability to modulate neuronal excitability. As for TRPM8, our experimental design involved a protocol of dual agonist pulses interspersed with a washing pulse to minimize agonist‐induced channel desensitization. Compound 23 was administered 1 min prior to and during the second agonist pulse.\nPrimary cultures of neonatal dorsal root ganglia were used for multielectrode array (MEA) and patch‐clamp experiments following established methodologies previously described. Neonatal dorsal root ganglia (DRGs) were obtained from Wistar rats (3–5 days old) and were isolated and digested with 0.25% (w/v) collagenase (type IA) in DMEM GlutaMax with 1% (v/v) penicillin/streptomycin (P/S) solution for 1 h at 37 °C in a 5% CO2 Thermo Scientific incubator. Following digestion, DRGs were mechanically dissociated and passed through a 100 μm cell strainer to obtain single‐cell suspensions. Suspensions were washed with DMEM GlutaMax with 10% (v/v) fetal bovine serum (FBS) and 1% (v/v) penicillin/streptomycin (P/S). Cells were then seeded in microelectrode array chambers coated with poly‐L‐lysine (8.3 μg·mL^−1) and laminin (5 μg·mL^−1). […]"}},
  "note": "Entries after “also recorded” stand apart in the source; their conditions may differ.",
  "data": [
    {"compound": "O=C(COC(=O)c1ccccc1-c1ccccc1)NC12CC3CC(CC(C3)C1)C2", "note": "[Compound 23, 2‐((3S,5S,7S)‐adamantan‐1‐ylamino)‐2‐oxoethyl [1,1′‐biphenyl]‐2‐carboxylate]", "values": [
      {"measurement": "effect on withdrawal latency to dry ice, systemic treatment", "setting": "[1]", "value": "did not exhibit cold antinociceptive effects; also recorded: did not significantly affect"},
      {"measurement": "attenuation of AITC‐induced firing", "setting": "[2]", "value": 40, "unit": "%"}
    ]}
  ]
}
